The target of one experiment is dopamine D2 receptors (Rattus norvegicus, UniProt P61169). Put plainly: biochemical. Format: binding. How it is done:
Inhibition of ^3 H-Spiroperidol Binding to Dopamine D2 Receptors in Rat Corpus Striatum in vitro
By this method the inhibition by drugs of the binding of ^3 H-spiroperidol (0.5 nM) to dopamine D2 receptors in membranes from rat corpus striatum is determined in vitro.

A further experiment deals with T1, 5-HT2 receptors (Rattus norvegicus, UniProt P14842).
T1 construct: 5-HT2 Receptors in Rat Cortex in vitro; from tissue; host or cells: rat cortex membranes
Put plainly: Inhibition of ^3 H-Ketanserin Binding to 5-HT2 Receptors in Rat Cortex in vitro. As to conditions: ^3 H-Ketanserin 0,5 nM; rat cortex membranes; read-out: 5-HT2 binding ^3 H ketanserin, IC50. The procedure:
Inhibition of ^3 H-Ketanserin Binding to 5-HT2 Receptors in Rat Cortex in vitro
By this method the inhibition by drugs of the binding of ^3 H-Ketanserin (0,5 nM) to 5-HT2 receptors in membranes from rat is determined in vitro. The method is described in Hyttel, Pharmacol. & Toxicol.

For experiment [1] the following is noted: in vivo; cited from earlier work.
The conditions of experiment [2]: in vivo; cited from earlier work. This is another data set of the same source.
The conditions of experiment [3]: in vivo; cited from earlier work. The source holds these as a separate data set.
For experiment [4] the following is noted: in vivo; cited from earlier work. This is another data set of the same source.
The conditions of experiment [5]: in vivo; cited from earlier work. This is another data set of the same source.
Where [6] appears, read: read-out: Dopamin D2 binding ^3 H spiroperidol, IC50.

These results are taken from US5789404A, “3-substituted 1-arylindole compounds” (H. Lundbeck A/S, priority 1993, dated 1998).

Structures can show the parent of a compound that is named as a salt. Where two headings read alike, the source gives them in different places.

Sequence of dopamine D2 receptors (P61169 whole entry): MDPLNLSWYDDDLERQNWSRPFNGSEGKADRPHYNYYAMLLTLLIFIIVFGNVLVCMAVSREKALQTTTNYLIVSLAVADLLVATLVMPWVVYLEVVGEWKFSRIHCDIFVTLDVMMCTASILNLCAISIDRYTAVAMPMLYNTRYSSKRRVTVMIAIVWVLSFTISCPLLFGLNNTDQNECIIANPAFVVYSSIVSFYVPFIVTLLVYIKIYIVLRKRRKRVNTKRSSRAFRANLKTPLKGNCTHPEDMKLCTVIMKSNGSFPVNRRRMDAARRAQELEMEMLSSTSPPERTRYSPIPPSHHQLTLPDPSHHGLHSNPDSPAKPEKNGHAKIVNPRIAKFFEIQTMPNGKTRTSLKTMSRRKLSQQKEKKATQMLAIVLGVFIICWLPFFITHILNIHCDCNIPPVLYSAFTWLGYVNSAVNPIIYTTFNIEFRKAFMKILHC
T1 sequence (P14842 whole entry): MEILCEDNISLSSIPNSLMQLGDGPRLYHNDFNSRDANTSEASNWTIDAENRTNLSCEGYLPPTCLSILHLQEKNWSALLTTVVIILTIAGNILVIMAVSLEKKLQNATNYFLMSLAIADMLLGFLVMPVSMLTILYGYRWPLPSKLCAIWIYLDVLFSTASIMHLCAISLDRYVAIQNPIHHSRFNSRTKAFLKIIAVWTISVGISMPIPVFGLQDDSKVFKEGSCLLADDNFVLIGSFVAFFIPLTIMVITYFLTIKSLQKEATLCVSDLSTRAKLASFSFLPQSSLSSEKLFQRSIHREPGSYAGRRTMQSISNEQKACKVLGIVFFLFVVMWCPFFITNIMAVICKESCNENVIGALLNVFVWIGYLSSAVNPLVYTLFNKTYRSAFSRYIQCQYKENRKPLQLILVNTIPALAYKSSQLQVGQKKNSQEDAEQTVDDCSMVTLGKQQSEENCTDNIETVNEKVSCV

`CNCc1cn(-c2ccc(F)cc2)c2ccc(Cl)cc12` [Compound 13b, N-methyl-[5-chloro-1-(4-fluorophenyl)-3-1H-indolylmethyl]amine hydrochloride]: the IC50 on dopamine D2 receptors (setting [6]) is 33 nM; on 5-HT2 receptors, 21 nM.

`CN(C)CCc1cn(-c2ccc(F)cc2)c2ccc(Cl)cc12` [Compound 14b, N,N-Dimethyl-2-(5-chloro-1-(4-fluorophenyl)-3-1H-indolyl)ethylamine maleate]: the IC50 worked out at 38 nM on dopamine D2 receptors (setting [6]) and 8.9 nM on 5-HT2 receptors.

Regarding `Fc1ccc(-n2cc(CCN3CCOCC3)c3cc(Cl)ccc32)cc1` [Compound 14c, 5-chloro-1-(4-fluorophenyl)-3-(2-(4-morpholinyl)ethyl)-1H-indole fumarate], the values for the half-inhibitory concentration (IC50) on dopamine D2 receptors and at 5-HT2 receptors were 54 nM and 22 nM, respectively.

Consider `CNCCc1cn(-c2ccc(F)cc2)c2ccc(Cl)cc12` [Compound 15a, N-methyl-2-(5-chloro-1-(4-fluorophenyl)-3-1H-indolyl)ethylamine Maleate], for which the IC50 at dopamine D2 receptors stood at 24 nM; on 5-HT2 receptors, 17 nM.

Consider `CN(C)CCOc1cn(-c2ccc(F)cc2)c2ccc(Br)cc12` [Compound 16a, N,N-Dimethyl-2-[5-bromo-1-(4-fluorophenyl)-1H-indol-3-yloxy]ethylamine, Hydrochloride], for which the values for the IC50 at dopamine D2 receptors (setting [6]) and at 5-HT2 receptors were 6.2 nM and 7 nM, respectively.

Regarding `CN(C)CCOc1cn(-c2ccc(F)cc2)c2ccc(C#N)cc12` [Compound 17a, N,N-Dimethyl-2-[5-cyano-1-(4-fluorophenyl)-1H-indol-3-yloxy]ethylamine, Hydrochloride], the figures for the IC50 at dopamine D2 receptors (setting [6]) and on 5-HT2 receptors were 0.98 nM and 21 nM, respectively.

`Cc1nc2sccn2c(=O)c1CCN1CCC(=C(c2ccc(F)cc2)c2ccc(F)cc2)CC1` [ritanserin]: in experiment [1], the “abuse of alcohol and drugs” value was “reduce abuse of alcohol and drugs”. In experiment [2], the neuroleptic-induced parkinsonism entry was “relieve neuroleptic-induced parkinsonism”. In addition, the “antidepressant effect / depressive symptoms of schizophrenia” value in experiment [3] was “shown to be an antidepressant and to improve depressive symptoms of schizophrenia”. Moreover, the “effects in an animal test indicative of anxiolytic drug activity” value in experiment [4] was “exert effects in an animal test indicative of anxiolytic drug activity”. Further, the quality of sleep result in experiment [5] is listed as “improve the quality of sleep”.
